Values quoted from earlier work, collected in patent US11000540B1, “Treatment for reducing adverse events including chemotherapy discomfort and other conditions” (priority 2019, dated 2021).

conditions: buffer pair acid/conjugate base

Compound | pKa of Acid (or pH of 1:1 mixture)
NCC(=O)O [Glycine/Glycine anion, Glycine] | 9.60
O=S(=O)(O)CCNC1CCCCC1 [N-Cyclohexy1-2-aminoethanesuifonic acid] | 9.3
Boric Acid [Boric Acid/Borate] | 9.0
Tris(hydroxymethyl)aminomethane | 8.2
